This is an account of results in patent publication US20120088827A1 (Profectus Biosciences, Inc., priority 2009, published 2012).

Broadly, the IC50 is the concentration needed to halve the response being measured. The term EC50 denotes the concentration that produces a half-maximal response.

For one assay, the target named is T1, NF-κB p65 (Homo sapiens, UniProt Q04206).
T1 construct: purchased Active Motif
The assay is described as follows: TransAM NF-κB Family DNA Binding ELISA, p65. How it is done:
The binding activity of NF-κB heterodimer or homodimer subunits from activated nuclear extracts or purified recombinant NF-κB proteins exposed to the drug compounds was evaluated using the TransAM NF-κB Family binding ELISA (Active Motif). Approximately 3-5 μg of nuclear extracts from TNFα activated Hela or Raji cells (Active Motif) or 20 ng of purified recombinant proteins (p65 and p50 from Active Motif, p52 from Santa Cruz) were incubated for 1 hour at room temperature with 20 μL drug compounds diluted in Complete Lysis buffer without DTT. Treated samples were then transferred to 30 μL Complete Binding Buffer (with DTT) in microplate wells pre-coated with the NF-κB consensus oligonucleotide. […] The plate was incubated for 1 hour at room temperature with gentle shaking and then washed 3 times with 200 μL 1× Wash Buffer. NF-κB p65, p50, p52, RelB, or c-Rel subunits bound to the plate were detected with 100 μL of the primary antibody (diluted 1:1000 in 1× Antibody Buffer) specific for that subunit. The plate was incubated for 1 hour at room temperature and then washed 3 times with 200 μL 1× Wash Buffer. Next, 100 μL of a HRP conjugated goat anti-rabbit antibody (diluted 1:1,000 in 1× Antibody Buffer) was added to each well. The plate was incubated for 1 hour at room temperature and then washed 4 times with 200 μL 1× Wash Buffer. 100 μL of room temperature Developing Solution was added to each well. The reaction was allowed to develop for 2-10 minutes until a medium dark blue color developed (depending on the subunit activity in the lot of extract or lot of recombinant protein used) and then the reaction was stopped with 100 μL Stop Solution yielding a yellow color. Absorbance was recorded using a Becton-Dickinson DTX 880 Multimode Detector at 450 nm with a reference wavelength subtracted at 620 nm.
(In general: In an ELISA, binding on a coated surface is turned into a signal by an enzyme label.)

Assay [1] relates to NF-κB driven transcription (pNF-κB-luc reporter, 293 cells). The assay is described as follows: 293/NF-kB-luc reporter cell assay. The note with it: Homo sapiens; compound 2 hours, then 20 ng/ml TNF-α for 18 hours; luminescence. Format: cell-based. As to the method:
(§1) Two reporter cell assays were used to determine the ability of the compounds of Examples 1-12 to inhibit NF-κB driven transcription. The first assay was a 293-cell based assay with a stably integrated pNF-κB-luc reporter plasmid containing 3 NF-κB promoter elements. The second assay was a 293-cell based assay with a stably integrated pTRH1-NF-κB-dscGFP reporter containing 4 NF-κB promoter elements. Cells were treated with 0, 0.2, 1, 10, 20 and 40 μM of the compounds of Example 1-12 for 2 hours then were induced with 20 ng/ml TNF-α for 18 hours. Following the induction, luminescence or fluorescence was quantified using a Beckman-Coulter 2300 plate reader. […] As a control, 0.5% DMSO treated and untreated cells were compared to verify that the compounds of Examples 1-12 had no effect on the expression of luciferase or in the readout of the assay. There was a slight decrease in the output from the assay in the DMSO treated population although it was not statistically significant. As a result of the controls, the decrease in activity in the drug treated samples was compared to the DMSO control sample.

For assay [2], the system named is NF-κB driven transcription (pTRH1-NF-κB-dscGFP reporter, 293 cells). Nature of the assay: NF-kB/293/GFP reporter cell assay. It is filed as cell-based. The note with it: Homo sapiens, HEK293; compound 2 hours, then 20 ng/ml TNF-α for 18 hours; fluorescence. How it is done: as §1
The test system of the next assay is IL-6. Nature of the assay: Inhibition of IL-6 release in LPS-stimulated RAW 264.7 cells. Format: cell-based. The note with it: Mus musculus, RAW264.7; pretreated 2 hours, 1 μg/mL LPS 20-24 hours. As to the method: RAW 264.7 cells were seeded at 4×10^4 cells per well in complete growth medium in 96 well white TC plates with clear bottoms one day prior to the assay. The next day the cells were washed once and 100 μL fresh growth media was added. Cells were pretreated with 0.5 μL from a 6 point 200× dilution series of the test compounds in DMSO for 2 hours. Following pretreatment with the drugs, the inflammatory response was induced by adding 5 μL of a 20 μg/mL solution of LPS (Sigma). The cells were incubated in the presence of the drugs and 1 μg/mL LPS for another 20-24 hours. Typically after treatment the total DMSO was […] of the culture volume and the final concentrations of the compounds were approximately: 40, 20, 10, 1, 0.2 and 0 μM depending on the MW of each compound. Modified dilution series were prepared as needed to get adequate dose response curves without changing the % DMSO. Samples were run in duplicate or triplicate and included DMSO treated control wells with and without LPS stimulation. Drugs with a known activity such as Parthenolide or DHMEQ were run as experimental controls. After 20-24 hours LPS activation, the media supernatant was collected from the cells and replaced with fresh media. The supernatant samples were cleared by centrifugation at 1,000×g for 5 minutes, transferred to fresh storage plates, and stored frozen at −30° C.
After determining the appropriate supernatant dilutions experimentally, mIL-6 levels in the supernatants were quantified using Quantikine™ mouse IL-6 Immunoassay (R&D Systems) according to the manufacturer's protocol. Approximately 50 μL of the supernatants diluted in Calibrator Diluent were added to 50 μL of Assay Diluent in microplate wells pre-coated with an anti-mouse IL-6 capture antibody. Controls included a calibrated positive IL-6 control sample, non-specific binding (NSB) wells containing Calibrator Diluent but no IL-6, and a recombinant mouse IL-6 standard dilution series (10-1000 pg/mL). The plates were incubated at room temperature for 2 hours with shaking and then washed 5 times with 400 μL 1× Wash Buffer. Approximately 100 μL of an HRP-conjugated anti-mouse IL-6 antibody was added to each well to detect IL-6 captured on the plate. The plates were incubated at room temperature for 2 hours and then washed 5 times with 400 μl 1× Wash Buffer. Equal volumes of Color Reagents A and B were mixed and 100 μL of this HRP Substrate Solution was added to each well on the plate. The blue color was allowed to develop for 30 minutes and then the reaction was stopped using 100 μL of Stop Solution yielding a yellow color. Absorbance at 450 nm with a reference wavelength subtracted at 595 nm was recorded using a Becton-Dickinson DTX 880 Multimode Detector.
The concentration of mIL-6 in the unknown samples was determined from a curve-fit of the mIL-6 standard absorbance data and multiplying by the dilution factor. The maximum activity achieved in the absence of the inhibitor (DMSO+LPS treated wells) was arbitrarily given a value of 100%; likewise the minimum activity in the absence of the stimulant (no LPS) was assigned a value of 0% Inhibition of the amount of mIL-6 cytokine released in the drug treated wells was calculated relative to the maximum activation in the DMSO+LPS treated control wells (i.e., % inhibition=100−(drug+LPS treated)/(DMSO+LPS treated)). Dose response curves were used to determine the effective concentration to inhibit 50% of the mIL-6 cytokine released (IC50) by means of a SigmaPlot macro which fits a sigmoidal dose-response curve to the (log 10) μM concentration versus % inhibition. […] This technique yields an objective value for the IC50 provided that 50% inhibition was approached at the concentrations tested.

The mark [3] stands for this setting: binding to NF-κB consensus oligonucleotide, read-out: p65 binding IC50.

SMILES strings stand for the structures. Where two headings read alike, the source gives them in different places. Where only a bound is given, the exact number is not on record here.

T1 sequence (Q04206 whole entry): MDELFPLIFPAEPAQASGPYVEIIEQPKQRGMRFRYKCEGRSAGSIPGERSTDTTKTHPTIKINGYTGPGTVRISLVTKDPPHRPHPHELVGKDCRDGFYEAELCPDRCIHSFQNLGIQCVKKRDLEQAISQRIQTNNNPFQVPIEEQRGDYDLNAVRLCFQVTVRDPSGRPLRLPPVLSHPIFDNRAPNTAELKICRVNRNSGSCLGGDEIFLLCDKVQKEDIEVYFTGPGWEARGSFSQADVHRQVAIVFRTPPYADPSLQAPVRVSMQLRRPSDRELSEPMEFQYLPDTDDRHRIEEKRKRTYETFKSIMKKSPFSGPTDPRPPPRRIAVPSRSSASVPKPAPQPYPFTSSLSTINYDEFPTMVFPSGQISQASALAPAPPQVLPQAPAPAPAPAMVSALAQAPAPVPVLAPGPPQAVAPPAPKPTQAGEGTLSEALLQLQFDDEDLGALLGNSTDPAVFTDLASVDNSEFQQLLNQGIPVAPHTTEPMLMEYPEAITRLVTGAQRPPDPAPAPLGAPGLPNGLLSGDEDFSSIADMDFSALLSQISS

On to `CC(C)(C)CC(=O)Oc1ccccc1C(=O)NC1=CC(=O)C2OC2C1OC(=O)CC(C)(C)C` (racemic) [Example 9, (±)-2-(2-(3,3-dimethylbutanoyloxy)-5-oxo-7-oxabicyclo[4.1.0]hept-3-en-3-ylcarbamoyl)phenyl 3,3-dimethylbutanoate], for which, at NF-κB p65 (setting [3]), the IC50 turned out to be 116 µM. In addition, the values for the 50% effective concentration (EC50) (in assay [1]; in assay [2]; in the assay with IL-6) were 15 µM, 16 µM and 1400 nM, respectively.
The compound `CCOP(=O)(OCC)Oc1ccccc1C(=O)NC1=CC(=O)C2OC2C1O` (racemic) [Example 10, (±)-diethyl 2-(2-hydroxy-5-oxo-7-oxabicyclo[4.1.0]hept-3-en-3-ylcarbamoyl)phenyl phosphate] displayed an IC50 at NF-κB p65 of 59 µM. For the same compound, the half-maximal effective concentration (EC50) stood at 24 µM in assay [1], 13 µM in assay [2] and 6000 nM in the assay with IL-6.
Consider `O=C(Nc1ccccc1)OC1C(NC(=O)c2ccccc2O)=CC(=O)C2OC21` (racemic) [Example 11, (±)-3-(2-hydroxybenzamido)-5-oxo-7-oxabicyclo[4.1.0]hept-3-en-2-yl phenylcarbamate], for which the IC50 on NF-κB p65 (setting [3]) turned out to be 7.3 µM. For the same compound, the EC50 worked out at 3.3 µM in assay [1], 4.3 µM in assay [2] and 870 nM in the assay with IL-6.
As for `O=C(NC1=CC(=O)C2OC2C1O)c1ccccc1OP(=O)(OCc1ccccc1)OCc1ccccc1` (racemic) [Example 12, (±)-dibenzyl 2-(2-hydroxy-5-oxo-7-oxabicyclo[4.1.0]hept-3-en-3-ylcarbamoyl)phenyl phosphate], the half-inhibitory concentration (IC50) at NF-κB p65 (setting [3]) is more than 320 µM. In addition, the EC50 in assay [1] is more than 26 µM; in assay [2], more than 26 µM; in the assay with IL-6 it was more than 26000 nM.
